This note sets out measurements from PubChem BioAssay AID1996.

Each structure is given as a SMILES string. In brackets after ≈: the same amount, converted by molar mass.

The conditions of the series: buffer; pH 7.4; 200.0 µM.
By solubility (kinetic) is commonly meant the concentration staying in solution when a stock, usually in DMSO, is diluted into the medium. Compound `COCCNC(=S)N1CCN(C/C=C/c2ccccc2)CC1` came in with a kinetic solubility of over 47.9 µg/mL.
Compound `O=C(Cc1ccccc1)N1CCN(c2ccccc2F)CC1` gave a solubility (kinetic) of over 44.8 µg/mL.
Next, `Cc1ccc(C(=O)O)c(C(=O)Nc2nc3ccccc3s2)c1`: over 46.9 µg/mL.
Next, `CC(CCc1ccccc1)NC(=O)c1ccccc1Cl` (stereo unspecified): 41.6 µg/mL (≈ 145 µM); `COCC1CCCN(Cc2nc(-c3ccc4c(c3)OCO4)no2)C1` (stereo unspecified): 43.4 µg/mL (≈ 131 µM); `CCOc1ccc(Cn2c(=O)oc3ccccc32)cc1`: under 0.6 µg/mL.
On to `Cc1cccc(N2CCN(Cc3ccc([N+](=O)[O-])o3)CC2)c1C`, for which the kinetic solubility amounted to 6.1 µg/mL (≈ 19.3 µM).
Under `C=CCC(C(=O)OC)(C(=O)OC)c1ccccc1[N+](=O)[O-]` stands over 44 µg/mL; under `CC1CCCC(C)N1C(=O)COc1cccc(Oc2ccccc2)c1` (stereo unspecified), 20.8 µg/mL (≈ 61.3 µM); under `CCN(Cc1ccncc1)C(=O)Cc1cccs1`, over 39.1 µg/mL.
On to `C(=C\c1ccccc1)/CNCC1CCCO1.Cl` (stereo unspecified), for which the solubility (kinetic) was determined as 38 µg/mL.
Under `COc1cccc(NC(=O)CSc2nnc(-c3cccnc3)o2)c1` stands over 51.4 µg/mL; under `Cc1cccc(NC(=O)C2CCN(C(=O)c3ccco3)CC2)c1C`, over 49 µg/mL.
Under `COc1ccc(/C=C/C(=O)O)cc1S(=O)(=O)NCC1CCCO1` (stereo unspecified) stands 41.3 µg/mL (≈ 121 µM); under `N#C/C(=C\N1CCOCC1)C(N)=O`, over 27.2 µg/mL; under `O=C(CN1C(=O)C2CCCCC2C1=O)Nc1ccccc1C(=O)O` (stereo unspecified), over 49.6 µg/mL.
Under `Cc1onc(-c2c(Cl)cccc2Cl)c1/C(N)=N/OC(=O)N(C)C` stands over 53.6 µg/mL.
`CC(NC(=O)c1ccc(Br)o1)c1ccccc1` (stereo unspecified) gave a kinetic solubility of 35.8 µg/mL (≈ 122 µM).
Under `N#Cc1ccc(-c2nc3cc(Cl)ccc3c(=O)n2O)cc1` stands 44 µg/mL (≈ 148 µM).
Next, `NC(=O)COc1ccc(NS(=O)(=O)Cc2ccccc2)cc1`: 46.1 µg/mL (≈ 144 µM); `CCOC(=O)c1c(NC(=S)N2CCOCC2)sc(C)c1C`: under 0.4 µg/mL.
Under `COc1cc(C(C)=O)ccc1OCC(=O)NC(=O)Nc1ccc(C)cc1C` stands 14.1 µg/mL (≈ 38.1 µM); under `CC1Oc2ccccc2N(CC(=O)NC2CCCC2)C1=O` (stereo unspecified), over 43.3 µg/mL.
`CC(=O)N(C)c1ccc(NC(=S)NC(=O)/C=C/c2ccco2)cc1` had a solubility (kinetic) of 11.6 µg/mL (≈ 33.8 µM).
Under `C/C(=N/OC(=O)CC(C)C)c1cc(-c2ccc(Cl)cc2)no1` stands under 0.3 µg/mL; under `CCOC(=O)Cc1csc(NC(=O)CN2CCN(c3ccccc3)CC2)n1`, 44.6 µg/mL (≈ 115 µM); under `O=C1Nc2ccccc2Nc2ccccc21`, 20.9 µg/mL (≈ 99.4 µM).
Under `COc1ccc(/C=C/C(=O)O)cc1S(=O)(=O)Nc1ccc2c(c1)OCO2` stands 49.8 µg/mL (≈ 132 µM).
For `Cl.N=c1ccn(Cc2c(Cl)cccc2Cl)cc1`, the solubility (kinetic) is over 43.4 µg/mL.
Next, `N/C(=N\OC(=O)Nc1ccccc1)c1cccc(C(F)(F)F)c1`: 27.9 µg/mL (≈ 86.3 µM).
Under `CCc1nonc1NC(=O)c1oc2cc(C)c(C)cc2c1C` stands 0.3 µg/mL (≈ 1 µM); under `CC(=O)c1cccc(NC(=O)c2cc(-c3ccco3)on2)c1`, 2.1 µg/mL (≈ 7.09 µM).
Under `Cn1c(N)c(C(=O)COC(=O)COc2cccc(Br)c2)c(=O)n(C)c1=O` stands 11.3 µg/mL (≈ 26.5 µM); under `CSc1ccc(/C=N/S(=O)(=O)c2ccccc2)cc1`, over 43.7 µg/mL.
With `CCOc1ccc(OCC)c(S(=O)(=O)n2ccnc2C)c1`, the kinetic solubility worked out at 19.7 µg/mL (≈ 63.5 µM).
Compound `CCN(CC)CCCNc1nc(N)c([N+](=O)[O-])c(NCCO)n1` came in with a kinetic solubility of over 49.1 µg/mL.
Next, `O=C1CCC([N+](=O)[O-])C(c2cc(Br)ccc2F)N1` (stereo unspecified): 46.4 µg/mL (≈ 146 µM); `CCOC(=O)c1ccc(N2C(=O)Cc3ccccc3C2=O)cc1`: over 46.4 µg/mL; `Cc1cccc(OCC(=O)NCc2cc(C)nc3ccccc23)c1`: 5 µg/mL (≈ 15.6 µM).
Next, `Cc1ccc(CNC(=O)CCNC(=O)c2ccc([N+](=O)[O-])cc2)cc1`: 41.2 µg/mL (≈ 121 µM).
Turning to `O=C1CCc2cc(S(=O)(=O)NC3CCCCC3)ccc2N1`, the solubility (kinetic) is over 46.3 µg/mL.
Under `CCOC(=O)c1c(C)[nH]c(C)c1C(=O)COC(=O)[C@@H](NC(=O)c1ccco1)C(C)C` stands over 62.8 µg/mL.
Next, `CC(=O)Nc1ccccc1NC(=O)c1ccc(C)c(C)c1`: over 42.4 µg/mL; `CC1CC1C(=O)OCC(=O)c1c(N)n(C)c(=O)n(C)c1=O` (stereo unspecified): over 44.3 µg/mL.
Compound `Cl.O=C1NCC2(CCN(CCc3ccccc3)CC2)O1` showed a kinetic solubility of over 44.5 µg/mL.
Next, `Cc1nc(/C(N)=N/OC(=O)c2ccccc2Cl)c(C(F)(F)F)o1`: 35.8 µg/mL (≈ 103 µM).
Next, `CCCC(=O)NC(c1ccccc1)c1c(O)ccc2ccccc12` (stereo unspecified): under 0.7 µg/mL; `CC(C(=O)O)n1c2ccccc2c2cnn(C)c(=O)c21` (stereo unspecified): over 40.7 µg/mL.
`NCc1oc(-c2ccccc2)cc1C(=O)O`: the kinetic solubility was 22.2 µg/mL (≈ 102 µM).
Under `COc1ccc(NC(=O)c2cccc(NS(=O)(=O)c3ccccc3)c2)cc1` stands 34.2 µg/mL (≈ 89.4 µM).
Under `Nc1ccc(NC(=O)NC2CCCCC2)cc1[N+](=O)[O-]` stands 1.6 µg/mL (≈ 5.75 µM); under `Nc1c2c(nc3sc4c(c13)CCCC4)-c1ccccc1CC2`, under 0.3 µg/mL; under `O=C(NCc1ccccc1)c1ccc(NC(=O)C2CCCO2)cc1` (stereo unspecified), over 48.7 µg/mL.
Next, `O=C(CC1NCCN(Cc2ccccc2)C1=O)Nc1ccc(Cl)cc1` (stereo unspecified): 46.8 µg/mL (≈ 131 µM); `COc1ccc(C(=O)Nc2cccc3c2CCCC3)cc1`: under 0.6 µg/mL; `Cc1ccc(NC(=O)CCN2CCOCC2)cc1C`: over 39.4 µg/mL.
In turn, `Cc1ccccc1N1C(=O)CC(c2c[nH]c3ccccc23)C1=O` (stereo unspecified) showed a solubility (kinetic) of over 45.7 µg/mL.
Next, `O=C1CCC([N+](=O)[O-])C(c2ccccc2C(F)(F)F)N1` (stereo unspecified): over 43.2 µg/mL.
Under `Cc1ccnc(NC(=O)COC(=O)C23CC4CC(CC(C4)C2)C3)n1` stands 8.7 µg/mL (≈ 26.4 µM); under `Cc1cc(C)nc(NC(=S)Nc2ccc(F)cc2F)c1`, 1.7 µg/mL (≈ 5.8 µM).
On to `Cc1cc(NC(=O)NC(C(F)(F)F)C(F)(F)F)no1`, for which the solubility (kinetic) worked out at 22.7 µg/mL (≈ 78 µM).
Next, `COc1cccc(N2CCN(c3ccc(S(=O)(=O)N4CCN(C)CC4)cc3[N+](=O)[O-])CC2)c1`: 11.9 µg/mL (≈ 25 µM); `COc1cccc(NC(=O)COC(=O)CCSc2ccccc2)c1`: 39.8 µg/mL (≈ 115 µM); `CCNc1nc(NCC)nc(N(CC)C(N)=S)n1`: 10 µg/mL (≈ 37.1 µM).
Take `Cl.N=c1ccn(Cc2ccc([N+](=O)[O-])cc2)cc1`: the solubility (kinetic) is over 39.9 µg/mL.
Take `O=C(CSc1nnc(-c2ccco2)o1)Nc1ccccc1Cl`: the solubility (kinetic) was over 50.4 µg/mL.
Under `CCc1ccc(C2CC(=O)N(c3cccc(F)c3)C3=C2C(=O)OC3)cc1` (stereo unspecified) stands 9.6 µg/mL (≈ 27.3 µM); under `COc1ccc(S(=O)(=O)N2CC(=O)Nc3ccccc32)cc1F`, over 50.5 µg/mL.
Regarding `CCN1CCN(CC(=O)c2ccc(C)cc2)CC1`, the kinetic solubility is 32.4 µg/mL (≈ 132 µM).
Next, `CCc1cc(=O)oc2c(C)c(OC(C)C(=O)N3CCC[C@@H]3C(=O)O)ccc12` (stereo partly specified): over 56 µg/mL; `O=C(Nc1ccccc1)c1cn(CCBr)cn1`: over 44.1 µg/mL; `Cc1noc(C)c1NC(=O)NC(c1ccccc1)c1ccccc1`: 10.2 µg/mL (≈ 31.7 µM).
Under `O=[N+]([O-])c1ccc(COP(=O)([O-])OCc2ccc([N+](=O)[O-])cc2)cc1.[Na+]` stands 58.2 µg/mL.
Next, `CC(=O)c1cccc(-n2c(CCC(=O)O)ccc2-c2ccccc2)c1`: over 50 µg/mL; `COc1ccc(C)cc1S(=O)(=O)N1CCc2ccccc2C1`: 18.1 µg/mL (≈ 57 µM).
Take `Cc1cc(NC(=O)C(C)Oc2ccc(Cl)cc2Cl)no1` (stereo unspecified): the solubility (kinetic) is 9.1 µg/mL (≈ 28.9 µM).
Under `CC(C)OC(=O)Cn1cc(C#N)c2ccccc21` stands over 36.3 µg/mL; under `O=c1cc(Cl)c2ccccc2n1-c1ccccc1`, over 38.4 µg/mL; under `COc1ccc(S(=O)(=O)N2CCCCC2)cc1NC(=O)COC(=O)c1ccco1`, 5.8 µg/mL (≈ 13.7 µM).
On to `CCCn1ccc(O)c(Cc2ccc(Cl)cc2)c1=O`, for which the kinetic solubility came to 7.3 µg/mL (≈ 26.3 µM).
Compound `O=C1COc2ccc(C(=O)COc3ccc([N+](=O)[O-])cc3)cc2N1` displayed a kinetic solubility of 0.8 µg/mL (≈ 2.44 µM).
`Cc1ccc(CONS(=O)(=O)c2cc(C)ccc2C)cc1` yielded a solubility (kinetic) of 5.2 µg/mL (≈ 17 µM).
As for `O=C(O)c1cc2nccc(-c3ccco3)n2n1`, the kinetic solubility was over 34.4 µg/mL.
`Cc1ccc(C)c(C(=O)OCC(=O)N(C)c2ccccc2)c1` registered a solubility (kinetic) of 38 µg/mL (≈ 128 µM).
Consider `O=C(NCCc1ccccc1)c1ccc2c(c1)OCO2`, for which the solubility (kinetic) came out at 39.6 µg/mL (≈ 147 µM).
Next, `CSc1ncccc1C(=O)OCC(=O)Nc1ccc(N2CCOCC2)cc1`: 10.6 µg/mL (≈ 27.4 µM); `CCC(C)c1ccc(NC(=O)COC(=O)CCNS(=O)(=O)c2cccs2)cc1` (stereo unspecified): 21.2 µg/mL (≈ 49.9 µM).
Take `CN(C)[C@@H]1C(=O)C(C(N)=O)=C(O)[C@@]2(O)C(=O)C3=C(O)c4c(O)cccc4[C@@](C)(O)C3[C@H](O)C12.Cl` (stereo partly specified): the solubility (kinetic) was found to be 70.2 µg/mL.
Next, `O=C(NCCN1CCOCC1)c1cc(Cl)ccc1Cl`: 41 µg/mL (≈ 135 µM); `CCOC(=O)c1c(C)n(C(C)C)c2ccc(OC)cc12`: 15.1 µg/mL (≈ 54.8 µM); `CN=C(c1ccc([N+](=O)[O-])cc1)N1CCCCC1`: over 37.1 µg/mL.
Next, `COc1ccc(CCNC(=S)NCCc2ccc(OC)c(OC)c2)cc1OC`: over 60.7 µg/mL.
Next, `COc1cc2c(cc1OC)C(c1ccc([N+](=O)[O-])cc1)NC(=O)C2` (stereo unspecified): 45.6 µg/mL (≈ 139 µM); `CN(C)CCCC1Sc2ccccc2Sc2ccccc21.O=C(O)C(=O)O` (stereo unspecified): over 60.8 µg/mL; `CCOC(=O)c1ccc(NC(=O)Cc2cccs2)cc1`: over 43.4 µg/mL.
Consider `COc1cc(S(=O)(=O)N2CCOCC2)ccc1NC(=O)COC(=O)/C=C/c1cc(OC)c(OC)c(OC)c1`, for which the kinetic solubility was 4.6 µg/mL (≈ 8.35 µM).
Next, `O=[N+]([O-])c1ccc2oc(C(O)c3cccc(Cl)c3)cc2c1` (stereo unspecified): 19.4 µg/mL (≈ 63.9 µM).
Next, `O=C(CSc1ccccc1C(=O)O)NCc1ccccc1`: 44 µg/mL (≈ 146 µM); `CC1CCC(NS(=O)(=O)c2cccc3nsnc23)CC1` (stereo unspecified): over 46.7 µg/mL; `CNC(=O)/C(=C\c1ccco1)NC(=O)c1ccco1`: over 39 µg/mL.
Next, `O=[N+]([O-])c1ccc2nc(-c3ccncc3)[nH]c2c1`: 8 µg/mL (≈ 33.3 µM).
